US10544103B2, “5-HT2 antagonists” (ANAMAR AB, priority 2015, dated 2020)

Target: T1, 5-HT2B receptor (Homo sapiens, UniProt P41595)
T1 construct: host or cells: CHO-K1
Experiment: 5-HT2B receptor binding, 3H-LSD ligand displacement assay
Conditions: for inhibition at 0.001 µM: 0.001 uM compound; for inhibition at 0.01 µM: 0.01 uM compound; for inhibition at 0.1 µM: 0.1 uM compound; for inhibition at 1 µM: 1 uM compound; for inhibition at 10 µM: 10 uM compound
Description: 5-HT2B receptor binding (performed at Eurofins Panlabs Taiwan, Ltd.) to human receptor protein expressed in CHO-K1 cells was determined in a ligand displacement assay using ^3H-lysergic acid diethylamide (LSD) as radioligand and ketanserine as a standard reference compound. Data is presented as % displacement of radioligand at indicated compound concentrations, see Table 1 and Table 2.

T1 sequence (P41595 whole entry): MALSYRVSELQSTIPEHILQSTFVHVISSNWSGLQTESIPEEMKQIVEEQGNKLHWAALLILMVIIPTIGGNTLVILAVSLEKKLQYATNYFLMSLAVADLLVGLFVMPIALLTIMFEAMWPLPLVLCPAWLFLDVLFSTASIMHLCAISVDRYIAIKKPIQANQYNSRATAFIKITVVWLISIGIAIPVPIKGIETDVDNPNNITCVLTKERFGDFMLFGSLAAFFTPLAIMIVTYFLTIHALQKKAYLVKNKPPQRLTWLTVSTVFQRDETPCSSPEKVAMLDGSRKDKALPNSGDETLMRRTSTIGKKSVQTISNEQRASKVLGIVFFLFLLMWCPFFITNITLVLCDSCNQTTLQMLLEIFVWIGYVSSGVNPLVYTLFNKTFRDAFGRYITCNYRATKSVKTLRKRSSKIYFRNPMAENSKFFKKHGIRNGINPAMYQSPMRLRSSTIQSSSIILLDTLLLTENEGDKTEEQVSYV

Row | inhibition at 1 µM [%] | inhibition at 10 µM [%] | Structure (SMILES) | inhibition at 0.001 µM [%] | inhibition at 0.01 µM [%] | inhibition at 0.1 µM [%]
1 | – | – | COc1ccc(NC(=N)N2CC(C)C(c3ccccc3OCc3ccccc3)=N2)cc1 (centres unmarked) [Example 104, 3-(2-(Benzyloxy)phenyl)-N-(4-methoxyphenyl)-4-methyl-4,5-dihydro-1H-pyrazole-1-carboximidamide] | -9 | 33 | 77
2 | – | – | COc1cc(CNC(=N)N2CC(C)C(c3ccccc3O)=N2)cc(OC)c1 (centres unmarked) [Example 61, N-(3,5-Dimethoxybenzyl)-3-(2-hydroxyphenyl)-4-methyl-4,5-dihydro-1H-pyrazole-1-carboximidamide] | 13 | 36 | –
3 | 89 | 101 | COc1ccccc1C1=NN(C(=N)N)CC1C (centres unmarked) [Example 18, 3-(2-Methoxyphenyl)-4-methyl-4,5-dihydro-1H-pyrazole-1-carboximidamide] | – | – | –
4 | – | – | CCCCCCCCCCCCNC(=N)N1CC(C)C(c2cccc(Cl)c2O)=N1 (centres unmarked) [Example 83, 3-(3-Chloro-2-hydroxyphenyl)-N-dodecyl-4-methyl-4,5-dihydro-1H-pyrazole-1-carboximidamide] | 3 | 23 | 82
5 | – | – | COc1ccccc1C1=NN(C(=N)NCC(F)(F)F)CC1C (centres unmarked) [Example 94, 3-(2-Methoxyphenyl)-4-methyl-N-(2,2,2-trifluoroethyl)-4,5-dihydro-1H-pyrazole-1-carboximidamide] | -12 | 17 | 77
6 | 89 | – | CNC(=N)N1CCC(c2ccccc2O)=N1 [Example 20, 3-(2-Hydroxyphenyl)-N-methyl-4,5-dihydro-1H-pyrazole-1-carboximidamide] | – | – | 41
7 | – | – | COc1ccc(CNC(=N)N2CC(C)C(c3ccccc3O)=N2)cc1Cl (centres unmarked) [Example 62, N-(3-chloro-4-methoxybenzyl)-3-(2-hydroxyphenyl)-4-methyl-4,5-dihydro-1H-pyrazole-1-carboximidamide] | 27 | 72 | –
8 | – | – | COc1ccccc1C1=NN(C(=N)NCC(F)(F)C(F)(F)C(F)(F)F)CC1C (centres unmarked) [Example 92, N-(2,2,3,3,4,4,4-Heptafluorobutyl)-3-(2-methoxyphenyl)-4-methyl-4,5-dihydro-1H-pyrazole-1-carboximidamide] | -3 | 22 | 78
9 | 43 | – | CC1CN(C(=N)N)N=C1c1ccnc2ccccc12 (centres unmarked) [Example 71, 4-Methyl-3-(quinolin-4-yl)-4,5-dihydro-1H-pyrazole-1-carboximidamide] | – | 11 | 20
10 | 86 | – | COc1ccc(F)cc1C1=NN(C(=N)N)CC1C (centres unmarked) [Example 45, 3-(5-Fluoro-2-methoxyphenyl)-4-methyl-4,5-dihydro-1H-pyrazole-1-carboximidamide] | – | 26 | 54
11 | – | – | CC1CN(C(=N)N[C@H](C)c2ccccc2)N=C1c1ccccc1O (stereo partly drawn) [Example 63, 3-(2-Hydroxyphenyl)-4-methyl-N—((R)-1-phenylethyl)-4,5-dihydro-1H-pyrazole-1-carboximidamide] | 36 | 81 | –
12 | 79 | – | CNC(=N)N1CCC(c2ccccc2Cl)=N1 [Example 19, 3-(2-Chlorophenyl)-N-methyl-4,5-dihydro-1H-pyrazole-1-carboximidamide] | – | – | 34
13 | – | – | COc1c(Cl)cccc1C1=NN(C(=N)NC2CCCCC2)CC1C (centres unmarked) [Example 84, 3-(3-Chloro-2-methoxyphenyl)-N-cyclohexyl-4-methyl-4,5-dihydro-1H-pyrazole-1-carboximidamide] | 11 | 63 | 94
14 | – | – | COc1c(Cl)cccc1C1=NN(C(=N)NCC(F)(F)C(F)(F)C(F)(F)F)CC1C (centres unmarked) [Example 106, 3-(3-Chloro-2-methoxyphenyl)-N-(2,2,3,3,4,4,4-heptafluorobutyl)-4-methyl-4,5-dihydro-1H-pyrazole-1-carboximidamide] | 16 | 57 | 93
15 | – | – | CC1CN(C(=N)NCc2ccc(Cl)cc2)N=C1c1ccccc1O (centres unmarked) [Example 55, N-(4-Chlorobenzyl)-3-(2-hydroxyphenyl)-4-methyl-4,5-dihydro-1H-pyrazole-1-carboximidamide] | 16 | 67 | –
16 | 89 | 101 | N=C(N)N1CCC(c2ccccc2Br)=N1 [Example 4, 3-(2-Bromophenyl)-4,5-dihydro-1H-pyrazole-1-carboximidamide] | – | – | –
17 | – | – | CC1CN(C(=N)Nc2ccc(Cl)cc2)N=C1c1ccccc1O (centres unmarked) [Example 103, N-(4-Chlorophenyl)-3-(2-hydroxyphenyl)-4-methyl-4,5-dihydro-1H-pyrazole-1-carboximidamide] | 42 | 90 | 99
18 | 99 | – | CCOC(=O)NC(=N)N1CC(C)C(c2cccc(Cl)c2O)=N1 (centres unmarked) [Example 119, Ethyl ((3-(3-chloro-2-hydroxyphenyl)-4-methyl-4,5-dihydro-1H-pyrazol-1-yl)(imino)methyl)carbamate] | – | 50 | 89
19 | 91 | – | CCOC(=O)NC(=N)N1CC(C)C(c2cccc(Cl)c2OC(=O)OCC)=N1 (centres unmarked) [Example 118, Ethyl ((3-(3-chloro-2-((ethoxycarbonyl)oxy)phenyl)-4-methyl-4,5-dihydro-1H-pyrazol-1-yl)(imino)methyl)carbamate] | – | 0 | 54
20 | – | – | CC1CN(C(=N)Nc2ccc(F)cc2)N=C1c1cccc(Cl)c1O (centres unmarked) [Example 109, 3-(3-Chloro-2-hydroxyphenyl)-N-(4-fluorophenyl)-4-methyl-4,5-dihydro-1H-pyrazole-1-carboximidamide] | 72 | 99 | 104
21 | – | – | COc1c(Cl)cccc1C1=NN(C(=N)NC#N)CC1C (centres unmarked) [Example 90, 3-(3-Chloro-2-methoxyphenyl)-N-cyano-4-methyl-4,5-dihydro-1H-pyrazole-1-carboximidamide] | 3 | 1 | -2
22 | 6 | 42 | COc1ccc(C2=NN(C(=N)N)CC2)cc1OC [Example 16, 3-(3,4-Dimethoxyphenyl)-4,5-dihydro-1H-pyrazole-1-carboximidamide, reference compound] | – | – | –
23 | – | – | CC1CN(C(=N)NCc2ccc(Cl)c(Cl)c2)N=C1c1ccccc1O (centres unmarked) [Example 58, N-(3,4-Dichlorobenzyl)-3-(2-hydroxyphenyl)-4-methyl-4,5-dihydro-1H-pyrazole-1-carboximidamide] | 2 | 52 | –
24 | – | – | CC1CN(C(=N)Nc2ccc(Cl)cc2)N=C1c1cccc(Cl)c1O (centres unmarked) [Example 111, 3-(3-Chloro-2-hydroxyphenyl)-N-(4-chlorophenyl)-4-methyl-4,5-dihydro-1H-pyrazole-1-carboximidamide] | 80 | 99 | 101
25 | – | – | CC1CN(C(=N)NCC(F)(F)F)N=C1c1ccccc1O (centres unmarked) [Example 95, 3-(2-Hydroxyphenyl)-4-methyl-N-(2,2,2-trifluoroethyl)-4,5-dihydro-1H-pyrazole-1-carboximidamide] | 12 | 70 | 96
26 | 89 | 99 | Cc1ccccc1C1=NN(C(=N)N)CC1 [Example 6, 3-(2-Methylphenyl)-4,5-dihydro-1H-pyrazole-1-carboximidamide] | – | – | –
27 | – | – | C[C@H]1CN(C(=N)N)N=C1c1cccc(Cl)c1O (single isomer, unassigned) [Example 72, (S)*-3-(3-chloro-2-hydroxyphenyl)-4-methyl-4,5-dihydro-1H-pyrazole-1-carboximidamide] | -1 | 21 | 69

Row | Structure (SMILES) | inhibition at 1 µM [%] | inhibition at 10 µM [%] | inhibition at 0.001 µM [%] | inhibition at 0.01 µM [%] | inhibition at 0.1 µM [%]
28 | CC1CN(C(=N)N)N=C1c1ccc(O)cc1O (centres unmarked) [Example 67, 3-(2,4-Dihydroxyphenyl)-4-methyl-4,5-dihydro-1H-pyrazole-1-carboximidamide] | 72 | – | – | 9 | 31
29 | CC1CN(C(=N)N)N=C1c1c[nH]c2ccccc12 (centres unmarked) [Example 70, 3-(1H-Indol-3-yl)-4-methyl-4,5-dihydro-1H-pyrazole-1-carboximidamide] | 98 | – | – | 38 | 84
30 | C[C@H]1CN(C(=N)N)N=C1c1ccccc1O (single isomer, unassigned) [Example 37] | 72 | 99 | – | -1 | 35
31 | CCC1CC(c2ccccc2Cl)=NN1C(=N)N (centres unmarked) [Example 27, 3-(2-Chlorophenyl)-5-ethyl-4,5-dihydro-1H-pyrazole-1-carboximidamide] | 76 | – | – | – | 25
32 | Cc1c(C2=NN(C(=N)N)C(C)C2)oc2ccccc12 (centres unmarked) [Example 28, 5-Methyl-3-(3-methylbenzofuran-2-yl)-4,5-dihydro-1H-pyrazole-1-carboximidamide] | 95 | – | – | – | 63
33 | CC1CN(C(=N)N)N=C1c1cc(Cl)ccc1O (centres unmarked) [Example 52, 3-(5-Chloro-2-hydroxyphenyl)-4-methyl-4,5-dihydro-1H-pyrazole-1-carboximidamide] | 95 | – | – | 34 | 72
34 | COc1cc(C(F)(F)F)ccc1C1=NN(C(=N)N)CC1C (centres unmarked) [Example 68, 3-(2-Methoxy-4-(trifluoromethyl)phenyl)-4-methyl-4,5-dihydro-1H-pyrazole-1-carboximidamide] | 86 | – | – | – | 32
